Measured values from patent US20230124634A1, “ANTIBACTERIAL COMPOSITION” (CONOPCO, INC., D/B/A UNILEVER, priority 2020, published 2023).

Legend:
[1] = pH 5; cited from earlier work
[2] = test system: Staphylococcus aureus ATCC 6538; assay: In-Vitro Time-Kill assay (EN 1040:2005 with minor modifications); type: cell-based
Description: Inoculums of S. aureus at about 10^7.5 colony forming units per milliliter (CFU/mL) were prepared from 24-hour cultures on agar plates. […]
The log10 of (number of surviving cells (CFU/mL)/initial number of cells) is plotted versus the exposure time. […] The exposure time is limited to only 60 s, as this time frame is a realistic estimate of the amount of time devoted to hand washing.
Surfactant Solution Preparation—Solution preparation consisted of mixing the surfactant solution with an equal volume of the appropriate buffer to form a test solution containing 50% of the original formulation concentration. Sodium carbonate/bicarbonates buffers (0.1 M) were prepared for use at pH 10 and 7, respectively, while sodium acetate buffer was used at pH 5.
The bacteria were stored at −80° C. and fresh working cultures were prepared by streaking on Tryptic Soy Agar plates for 24 hours at 37° C. and then preparing second subcultures in the same way before each experiment.
Following this procedure, stationary-phase bacterial cultures at approximately […] colony forming units (CFU) per mL (GF-U) were treated with the surfactant solution (as described above) at 25° C., rather than at 20° C. as specified in the Standard. In constructing the test sample, 8 parts by weight of the surfactant solution was combined with 1 part by weight of the culture and 1 part by weight of water. After 10, 20, 30, and 60 seconds of exposure, the samples were neutralized to arrest the antibacterial activity of the surfactant solution. […] The test solutions were serially diluted, plated on solid medium, and incubated for 24 hours. The surviving cells were then enumerated. Bactericidal activity was defined as the log10 reduction in CFU relative to the initial bacterial concentration at 0 seconds. Cultures not exposed to surfactant solution acted as the no-treatment controls. The log10 reduction was calculated using the formula:
log10 reduction=log10(CFU in no-treatment control)−log10(CFU in treated sample)

[3] = cited from earlier work
[4] = Silver ion solubility derived from solubility product (Ksp) in water at 25° C.; settings: calculated from Ksp
Description: More particularly, silver ion solubility [Ag+], a value given in mol/L may be calculated using the formula:

[5] = throughout the pH interval claimed

O=C(O)c1ccccc1 [benzoic acid]
percentage of organic acid preservative remaining undissociated (and active) [1]: 13%

O=[N+]([O-])[O-].[Na+] [NaNO3, sodium nitrate]
NaNO3 necessary to recover a one unit log10 reduction in S. aureus ([2]; in the presence of 0.03 M NaCl, SLES/Ag^+, pH 7.0): ≥ 0.3 M

CCCCCCCCCCCCOS(=O)(=O)[O-].[Na+] [SDS, sodium dodecyl sulfate]
synergy with silver ion ([2]; pH 5): strong synergy with silver ion | intrinsic biocidal properties ([2]; pH 5, on its own): quite biocidal on its own | inherent biocidal action [2, 5]: limited inherent biocidal action | synergy with silver ion [2, 5]: strong synergy with silver ion

[Br][Ag] [Silver bromide]
Ksp (mol/L in water at 25° C.) [3]: 5.3e-13 mol/L

octyl phenol ethoxylate [Triton X-100, reference compound]
biocidal, inherently or in combination with silver ion ([2]; pH 5, 10-60 second time scale): not biocidal | biocidal, inherently or in combination with silver ion ([2]; pH 7): ineffective

O=C([O-])c1ccccc1.[Ag+] [Silver benzoate]
Ksp (mol/L in water at 25° C.) [3]: 2.5e-05 mol/L

sodium lauryl ether sulfate with (on average) 1 ethoxy group [SLES-1 EO]
log10 reduction ([2]; pH range of 7-10, in the presence of silver ion): about 4 log10 | log10 reduction ([2]; pH range of 7-10, without silver): about 0.5 log10 | inherent biocidal action [2, 5]: limited inherent biocidal action | synergy with silver ion [2, 5]: strong synergy with silver ion

Sodium methyl cocoyl taurate [reference compound]
synergy with silver ion ([2]; pH 5): nor does it enhance the biocidal action of silver ion | intrinsic biocidal properties ([2]; pH 5, on its own): does not have intrinsic biocidal properties | biocidal, inherently or in combination with silver ion ([2]; pH 7): ineffective

sodium lauryl ether sulfate [SLES]
synergy with silver ion ([2]; pH 5): strong synergy with silver ion | log10 reduction ([2]; pH 5, on its own): about 2 log10 | log10 unit reduction ([2]; pH 7, SLES at 1% (top-half of Table 5)): ≤ 1 log10 | log10 unit reduction ([2]; pH 7, SLES at 10% (second half of Table 5)): ≤ 1 log10

sodium cocoyl glycinate [reference compound]
biocidal, inherently or in combination with silver ion ([2]; pH 7): ineffective

C/C=C/C=C/C(=O)O [sorbic acid]
percentage of organic acid preservative remaining undissociated (and active) [1]: 37%

sodium lauroamphoacetate [reference compound]
biocidal, inherently or in combination with silver ion ([2]; pH 7): ineffective

sodium cocoyl glutamate [reference compound]
biocidal, inherently or in combination with silver ion ([2]; pH 7): ineffective

O=C([O-])CC(O)(CC(=O)[O-])C(=O)[O-].[Ag+].[Ag+].[Ag+] [Silver citrate]
Ksp (mol/L in water at 25° C.) [3]: 2.5e-16 mol/L

[Cl][Ag] [Silver chloride]
Ksp (mol/L in water at 25° C.) [3]: 1.8e-10 mol/L | Silver Ion Solubility [Ag+] (mol/L in water at 25° C.) [4]: 1.3e-05 mol/L

O=S(=O)([O-])[O-].[Ag+].[Ag+] [Silver sulfate]
Ksp (mol/L in water at 25° C.) [3]: 1.4e-05 mol/L

[Ag+] [silver ion]
minimum level of silver ion necessary to see enhanced biocidal action ([2]; in the presence of 10% SLES and 0.5 M NaNO3, pH 7 and 25° C.): ≥ 0.03 ppm

sodium lauryl ether sulfate with (on average) 3 ethoxy groups [SLES-3EO]
inherent biocidal action [2, 5]: limited inherent biocidal action | synergy with silver ion [2, 5]: strong synergy with silver ion
